Earlier results as cited in EP0072762B1, “Fluorinated diaminoalkene derivatives” (priority 1981, dated 1983).

Test system: tumor
Settings: administered intravenously once or twice a week, cited from earlier work

SMILES: CC(C=NNC(=N)N)=NNC(=N)N [MGBG, methylglyoxal bis(guanylhydrazone)]
- complete disappearance of the diseases (65 treated patients): two of the 65 treated patients
- regression of the tumor (patients in advanced stages of various carcinomas, lymphoma, leukemia etc.): measurable regression of the tumor in many of the patients treated
